Converted amounts (≈) assume the structure as drawn. Bounds are passed on as bounds.

These results are taken from ChEMBL document CHEMBL3792312, “Synthesis and docking studies of pyrazine-thiazolidinone hybrid scaffold targeting dormant tuberculosis” (Bioorg Med Chem Lett, 2016).

In experiment [1] the test system is Escherichia coli. The experiment can be described thus: Antibacterial activity against Escherichia coli at 30 ug after 8 hrs. It is filed as functional.
For experiment [2], the system named is Pseudomonas fluorescens. Nature of the experiment: Antibacterial activity against Pseudomonas fluorescens at 3 ug after 8 hrs. It is filed as functional.
The test system of experiment [3] is Bacillus subtilis. Nature of the experiment: Antibacterial activity against Bacillus subtilis at 30 ug after 12 hrs. It is filed as functional.
In experiment [4] the test system is Pseudomonas fluorescens. Nature of the experiment: Antibacterial activity against Pseudomonas fluorescens at 10 ug after 8 hrs. It is filed as functional.
Experiment [5] concerns Staphylococcus aureus. Nature of the experiment: Antibacterial activity against Staphylococcus aureus at 3 ug after 12 hrs. It is filed as functional.
The subject of experiment [6] is Escherichia coli. Nature of the experiment: Antibacterial activity against Escherichia coli at 10 ug after 8 hrs. The class given is functional.
Experiment [7] has as its system Escherichia coli. The experiment can be described thus: Antibacterial activity against Escherichia coli at 3 ug after 8 hrs. It is filed as functional.
Experiment [8] deals with Bacillus subtilis. The experiment can be described thus: Antibacterial activity against Bacillus subtilis at 3 ug after 12 hrs. The class given is functional.
The subject of experiment [9] is Staphylococcus aureus. Nature of the experiment: Antibacterial activity against Staphylococcus aureus at 10 ug after 12 hrs. The class given is functional.
The subject of experiment [10] is Pseudomonas fluorescens. The experiment can be described thus: Antibacterial activity against Pseudomonas fluorescens at 30 ug after 8 hrs. The class given is functional.
For experiment [11], the system named is Mycolicibacterium smegmatis. The experiment can be described thus: Antitubercular activity against dormant Mycobacterium smegmatis MC2 155 at 3 ug after 12 days by XTT-Menadione assay. It is filed as functional, str. MC2 155. On the technique in general: Tetrazolium assays rely on reduction of a dye to a coloured formazan, in cell work by metabolically active cells.

In experiment [12] the test system is Bacillus subtilis. Nature of the experiment: Antibacterial activity against Bacillus subtilis at 10 ug after 12 hrs. The class given is functional.
Experiment [13] concerns Mycolicibacterium smegmatis. Nature of the experiment: Antitubercular activity against dormant Mycobacterium smegmatis MC2 155 at 10 ug after 12 days by XTT-Menadione assay. It is filed as functional, str. MC2 155.
Experiment [14] has as its system Mycolicibacterium smegmatis. Nature of the experiment: Antitubercular activity against dormant Mycobacterium smegmatis MC2 155 at 30 ug after 12 days by XTT-Menadione assay. It is filed as functional, str. MC2 155.
Experiment [15] deals with Mycobacterium tuberculosis. The experiment can be described thus: Antitubercular activity against dormant Mycobacterium tuberculosis H37Ra at 3 ug after 12 days by XTT-Menadione assay. It is filed as functional.
Experiment [16] has as its system Mycobacterium tuberculosis. Nature of the experiment: Antitubercular activity against dormant Mycobacterium tuberculosis H37Ra at 10 ug after 12 days by XTT-Menadione assay. The class given is functional.
Experiment [17] concerns Staphylococcus aureus. The experiment can be described thus: Antibacterial activity against Staphylococcus aureus at 30 ug after 12 hrs. The class given is functional.
The subject of experiment [18] is Mycobacterium tuberculosis. Nature of the experiment: Antitubercular activity against dormant Mycobacterium tuberculosis H37Ra at 30 ug after 12 days by XTT-Menadione assay. The class given is functional.
Experiment [19] concerns Mycobacterium tuberculosis. Nature of the experiment: Antitubercular activity against dormant Mycobacterium tuberculosis H37Ra after 12 days by XTT-Menadione assay. Conditions: 288 h. It is filed as functional, organism-based.

Consider `Nc1nccnc1C(=O)NN1C(=O)CS[C@H]1c1ccc([N+](=O)[O-])cc1`, for which the “inhibition (INH)” value in the experiment on Escherichia coli [1] was 37.49%; with Pseudomonas fluorescens [2], 37.2%; in the experiment with Bacillus subtilis [3], -19.53%; with Pseudomonas fluorescens [4], 24.31%; with Staphylococcus aureus [5] it was 16.74%; in the experiment on Escherichia coli [6] it was 57.79%. Besides, the “inhibition (INH)” value with Escherichia coli [7] is recorded as 42.143%; in the experiment with Bacillus subtilis [8], 0.25%; in the experiment on Staphylococcus aureus [9] it was -46.62%; in the experiment with Pseudomonas fluorescens [10], -20.68%; in [11], 34.28%; in the experiment with Bacillus subtilis [12], -1.56%. Moreover, the “inhibition (INH)” value in experiment [13] was -28.273%; in experiment [14], -10.9967%; in experiment [15], 39.54%; in experiment [16] it was 43%; in the experiment on Staphylococcus aureus [17], -21.02%; in [18], 49.69%.
On to `Nc1nccnc1C(=O)NN1C(=O)CSC1c1ccc(Cl)cc1Cl` (stereo unspecified), for which the “inhibition (INH)” value in the experiment on Escherichia coli [1] is -146.6%; with Pseudomonas fluorescens [2], 14.82%; in the experiment with Bacillus subtilis [3], 3.8%; in the experiment with Pseudomonas fluorescens [4], -6.12%; with Staphylococcus aureus [5], -35.91%; with Escherichia coli [6], 38.17%. Also, the “inhibition (INH)” value is -35.51% in the experiment on Escherichia coli [7]; -13.09% in the experiment with Bacillus subtilis [8]; -26.32% with Staphylococcus aureus [9]; 7.35% in the experiment on Pseudomonas fluorescens [10]; 42.73% in experiment [11]; -11.3% in the experiment on Bacillus subtilis [12]. The “inhibition (INH)” value is 55.96% in [13]; 33.52% in experiment [14]; 64.5% in [15]; 68.91% in [16]; -52.82% in the experiment with Staphylococcus aureus [17]; 63.39% in [18].
On to `Nc1nccnc1C(=O)NN1C(=O)CSC1c1cccc([N+](=O)[O-])c1` (stereo unspecified), for which the “inhibition (INH)” value in the experiment with Escherichia coli [1] is reported as 34.42%; in the experiment with Pseudomonas fluorescens [2], 4.173%; in the experiment on Bacillus subtilis [3], 17.93%; with Pseudomonas fluorescens [4], 25.83%; in the experiment with Staphylococcus aureus [5] it was 5.486%; in the experiment on Escherichia coli [6] it was 5.212%. Moreover, the “inhibition (INH)” value with Escherichia coli [7] is given as -91.9%; in the experiment on Bacillus subtilis [8] it was -23.1%; in the experiment on Staphylococcus aureus [9] it was -44.93%; in the experiment with Pseudomonas fluorescens [10], 47.95%; in [11], 36.91%; in the experiment on Bacillus subtilis [12] it was -12.6%. Also, the “inhibition (INH)” value in [13] is on record as -86.9278%; in experiment [14], 50.45%; in experiment [15], 63.89%; in experiment [16] it was 62.55%; in the experiment with Staphylococcus aureus [17], -37.97%; in experiment [18], 64.96%.
In the case of `CN(C)c1ccc(C2SCC(=O)N2NC(=O)c2nccnc2N)cc1` (stereo unspecified), the “inhibition (INH)” value with Escherichia coli [1] is 40.76%; in the experiment on Pseudomonas fluorescens [2] it was 35.05%; with Bacillus subtilis [3] it was 0.43%; in the experiment with Pseudomonas fluorescens [4], 22.64%; with Staphylococcus aureus [5], 31.97%; in the experiment with Escherichia coli [6] it was 62.03%. Besides, the “inhibition (INH)” value turned out to be 49.71% in the experiment with Escherichia coli [7]; 3.21% in the experiment on Bacillus subtilis [8]; 9.5% in the experiment on Staphylococcus aureus [9]; 34.38% with Pseudomonas fluorescens [10]; 34.15% in experiment [11]; 9.92% in the experiment on Bacillus subtilis [12]. The “inhibition (INH)” value in [13] is reported as 38.8231%; in experiment [14], -93.9118%; in experiment [15], 63.27%; in experiment [16], 66.92%; in the experiment on Staphylococcus aureus [17] it was 56.34%; in experiment [18], 69.04%.
Regarding `Nc1nccnc1C(=O)NN1C(=O)CSC1c1ccc(F)cc1` (stereo unspecified), the “inhibition (INH)” value with Escherichia coli [1] is 50.12%; in the experiment with Pseudomonas fluorescens [2] it was 27.83%; in the experiment on Bacillus subtilis [3], 3.63%; in the experiment on Pseudomonas fluorescens [4] it was 40.76%; with Staphylococcus aureus [5], -14.5%; with Escherichia coli [6], 45%. Also, the “inhibition (INH)” value with Escherichia coli [7] is listed as 41.47%; in the experiment on Bacillus subtilis [8], 14.29%; in the experiment on Staphylococcus aureus [9], -50.49%; in the experiment with Pseudomonas fluorescens [10] it was 42.8%; in experiment [11], 28.7381%; in the experiment with Bacillus subtilis [12] it was 21.54%. Besides, the “inhibition (INH)” value in [13] is on record as -3.707%; in experiment [14], 37.72%; in experiment [15], 68.04%; in [16], 67.84%; with Staphylococcus aureus [17], 8.99%; in experiment [18] it was 71.96%.
With `Nc1nccnc1C(=O)NN1C(=O)CSC1c1ccc(Cl)cc1` (stereo unspecified), the “inhibition (INH)” value in the experiment with Escherichia coli [1] is given as 38.45%; in the experiment on Pseudomonas fluorescens [2] it was 21.22%; in the experiment with Bacillus subtilis [3], 2.22%; in the experiment on Pseudomonas fluorescens [4] it was 13.99%; in the experiment with Staphylococcus aureus [5], 52.81%; in the experiment on Escherichia coli [6], -65.92%. The “inhibition (INH)” value in the experiment on Escherichia coli [7] is given as -8.913%; with Bacillus subtilis [8], -14.42%; in the experiment with Staphylococcus aureus [9], 14.12%; in the experiment on Pseudomonas fluorescens [10] it was -17.98%; in [11], 30.65%; in the experiment with Bacillus subtilis [12], -4.06%. The “inhibition (INH)” value in experiment [13] is reported as 64.17%; in experiment [14], 52.67%; in [15], 62.36%; in experiment [16], 70.78%; with Staphylococcus aureus [17] it was -34.8%; in experiment [18], 72.85%.
With `Nc1nccnc1C(=O)NN1C(=O)CSC1c1ccc(O)cc1` (stereo unspecified), the “inhibition (INH)” value in the experiment with Escherichia coli [1] was determined as 15.24%; in the experiment with Pseudomonas fluorescens [2] it was 30.55%; with Bacillus subtilis [3], 4.31%; in the experiment with Pseudomonas fluorescens [4], 16.61%; in the experiment with Staphylococcus aureus [5], 25.87%; with Escherichia coli [6], 14.06%. Moreover, the “inhibition (INH)” value in the experiment with Escherichia coli [7] came out at 56.462%; in the experiment on Bacillus subtilis [8] it was 13.88%; in the experiment with Staphylococcus aureus [9] it was 40.89%; in the experiment with Pseudomonas fluorescens [10] it was 43.72%; in experiment [11] it was 36.11%; in the experiment on Bacillus subtilis [12] it was 16.8%. Besides, the “inhibition (INH)” value was 27.68% in experiment [13]; 13.22% in experiment [14]; 65.54% in experiment [15]; 69.84% in experiment [16]; 43.79% in the experiment on Staphylococcus aureus [17]; 70.73% in experiment [18].
As to `Cc1cnc(C(=O)NN2C(=O)CSC2c2ccccc2)cn1` (stereo unspecified), the “inhibition (INH)” value in the experiment on Escherichia coli [1] is reported as 42.85%; in the experiment with Pseudomonas fluorescens [2], 19.67%; in the experiment with Bacillus subtilis [3], -9.36%; with Pseudomonas fluorescens [4] it was 33.57%; with Staphylococcus aureus [5] it was -39.23%; with Escherichia coli [6], 56.76%. In addition, the “inhibition (INH)” value with Escherichia coli [7] was 60.45%; in the experiment with Bacillus subtilis [8], 17.71%; with Staphylococcus aureus [9] it was 41.07%; in the experiment on Pseudomonas fluorescens [10] it was 35.1%; in [11] it was 34.46%; in the experiment on Bacillus subtilis [12] it was 16.03%. Moreover, the “inhibition (INH)” value in experiment [13] was found to be 24.96%; in [14] it was 61.3106%; in [15], 55.04%; in [16], 66.69%; in the experiment on Staphylococcus aureus [17] it was 39.81%; in experiment [18] it was 68.38%.
For the compound `Cc1cnc(C(=O)NN2C(=O)CSC2c2ccc(Cl)cc2)cn1` (stereo unspecified), the “inhibition (INH)” value with Escherichia coli [1] is reported as 40.4%; in the experiment with Pseudomonas fluorescens [2], 27.78%; with Bacillus subtilis [3], -36.6%; in the experiment with Pseudomonas fluorescens [4], 21.51%; with Staphylococcus aureus [5], -0.64%; with Escherichia coli [6], 64.64%. In addition, the “inhibition (INH)” value in the experiment with Escherichia coli [7] is reported as 63.05%; in the experiment with Bacillus subtilis [8], -0.29%; in the experiment with Staphylococcus aureus [9], -10.67%; with Pseudomonas fluorescens [10] it was 32.81%; in experiment [11] it was -84.5144%; in the experiment with Bacillus subtilis [12] it was -5.89%. Besides, the “inhibition (INH)” value is on record as 24.29% in experiment [13]; -19.6759% in experiment [14]; 60.85% in experiment [15]; 61.88% in [16]; 16.66% in the experiment with Staphylococcus aureus [17]; 62.27% in experiment [18].
One may read the MIC as the lowest concentration found to suppress growth. The low end stands for inhibition by little substance, the high end for a need for much substance. Regarding `C[C@H]1COC2(CCN(c3nc(=O)c4cc(C(F)(F)F)cc([N+](=O)[O-])c4s3)CC2)O1` [BTZ-043], inhibition of growth in [19] (MIC) required 3 ng/mL (≈ 6.95 nM).
Still for that read-out and setting: with `NNC(=O)c1ccncc1` [ISONIAZID] the figure was 75 ng/mL (≈ 547 nM); with `NC(=O)c1cnccn1` [PYRAZINAMIDE], more than 10000 ng/mL; with `CO[C@H]1/C=C/O[C@@]2(C)Oc3c(C)c(O)c4c(O)c(c(/C=N/N5CCN(C)CC5)c(O)c4c3C2=O)NC(=O)/C(C)=C\C=C\[C@H](C)[C@H](O)[C@@H](C)[C@@H](O)[C@@H](C)[C@H](OC(C)=O)[C@@H]1C` [RIFAMPIN], 2.1 ng/mL (≈ 2.55 nM).
